Reference: ChEMBL document CHEMBL3044903, “Synthesis and Herbicidal Activity of Novel 3-Alkoxycarbonyl-3-aryl-2,3-dihydro-2-oxo-1H-pyrrole Derivatives” (J Pestic Sci, 2004)

Key:
[1] = system: Schoenoplectiella juncoides; assay: Pre-emergence herbicide activity against Schoenoplectiella juncoides under greenhouse condition at 1 g a.i/a measured after 3 weeks; format: functional
Echinochloa oryzicola [2] = assay: Herbicidal activity against Echinochloa oryzicola at 5.0 g a.i/a treated at 1.5 leaf stage measured after 3 weeks; format: functional
Echinochloa oryzicola [3] = assay: Herbicidal activity against Echinochloa oryzicola at 5.0 g a.i/a treated at 2.5 leaf stage measured after 3 weeks; format: functional
Oryza sativa [4] = assay: Phytotoxicity against two-leaf stage Oryza sativa cv. Nipponbare (rice) planted zero cm depth at 2.5 g a.i/a measured after 3 weeks; format: organism-based; details: in vivo, other, 504 h
Echinochloa oryzicola [5] = assay: Post-emergence herbicide activity against Echinochloa oryzicola under greenhouse condition at 10 g a.i/a treated at one-leaf stage measured after 3 weeks; format: functional
[6] = system: Schoenoplectiella juncoides; assay: Pre-emergence herbicide activity against Schoenoplectiella juncoides under greenhouse condition at 10 g a.i/a measured after 3 weeks; format: functional
Echinochloa oryzicola [7] = assay: Herbicidal activity against Echinochloa oryzicola at 2.5 g a.i/a treated at 1.5 leaf stage measured after 3 weeks; format: functional
Oryza sativa [8] = assay: Phytotoxicity against two-leaf stage Oryza sativa cv. Nipponbare (rice) planted 2 cm depth at 2.5 g a.i/a measured after 3 weeks; format: organism-based; details: in vivo, 504 h
Echinochloa oryzicola [9] = assay: Pre-emergence herbicide activity against Echinochloa oryzicola under greenhouse condition at 10 g a.i/a measured after 3 weeks; format: functional
Echinochloa oryzicola [10] = assay: Post-emergence herbicide activity against Echinochloa oryzicola under greenhouse condition at 1 g a.i/a treated at one-leaf stage measured after 3 weeks; format: functional
Oryza sativa [11] = assay: Phytotoxicity against two-leaf stage Oryza sativa cv. Nipponbare (rice) planted 2 cm depth at 5.0 g a.i/a measured after 3 weeks; format: organism-based; details: in vivo, 504 h
[12] = system: Schoenoplectiella juncoides; assay: Post-emergence herbicide activity against Schoenoplectiella juncoides under greenhouse condition at 1 g a.i/a treated at one-leaf stage measured after 3 weeks; format: functional
Oryza sativa [13] = assay: Phytotoxicity against two-leaf stage Oryza sativa cv. Nipponbare (rice) planted zero cm depth at 5.0 g a.i/a measured after 3 weeks; format: organism-based; details: in vivo, 504 h
Echinochloa oryzicola [14] = assay: Herbicidal activity against Echinochloa oryzicola at 2.5 g a.i/a treated at 2.5 leaf stage measured after 3 weeks; format: functional
[15] = system: Schoenoplectiella juncoides; assay: Post-emergence herbicide activity against Schoenoplectiella juncoides under greenhouse condition at 10 g a.i/a treated at one-leaf stage measured after 3 weeks; format: functional
Echinochloa oryzicola [16] = assay: Pre-emergence herbicide activity against Echinochloa oryzicola under greenhouse condition at 1 g a.i/a measured after 3 weeks; format: functional
Echinochloa oryzicola [17] = assay: Herbicidal activity against Echinochloa oryzicola at 1 g a.i/a treated at 1.5 leaf stage measured after 3 weeks; format: functional
Oryza sativa [18] = assay: Phytotoxicity against two-leaf stage Oryza sativa cv. Nipponbare (rice) planted zero cm depth at 1 g a.i/a measured after 3 weeks; format: organism-based; details: in vivo, other, 504 h
Oryza sativa [19] = assay: Phytotoxicity against two-leaf stage Oryza sativa cv. Nipponbare (rice) planted 2 cm depth at 1 g a.i/a measured after 3 weeks; format: organism-based; details: in vivo, other, 504 h
Echinochloa oryzicola [20] = assay: Herbicidal activity against Echinochloa oryzicola at 1 g a.i/a treated at 2.5 leaf stage measured after 3 weeks; format: functional
Oryza sativa [21] = assay: Phytotoxicity against two-leaf stage Oryza sativa cv. Nipponbare (rice) planted 2 cm depth assessed as crop injury at 4 g a.i/a followed by leaching of irrigation water for 3 days measured after 3 weeks post-treatment; format: organism-based; details: in vivo, other, 504 h
Oryza sativa [22] = assay: Phytotoxicity against two-leaf stage Oryza sativa cv. Nipponbare (rice) planted 2 cm depth assessed as crop injury at 2 g a.i/a followed by leaching of irrigation water for 3 days measured after 3 weeks post-treatment; format: organism-based; details: in vivo, other, 504 h

Compound | Activity [1] [%] | Activity (Echinochloa oryzicola [2]) [%] | Activity (Echinochloa oryzicola [3]) [%] | Activity (Oryza sativa [4]) [%] | Activity (Echinochloa oryzicola [5]) [%] | Activity [6] [%] | Activity (Echinochloa oryzicola [7]) [%] | Activity (Oryza sativa [8]) [%] | Activity (Echinochloa oryzicola [9]) [%] | Activity (Echinochloa oryzicola [10]) [%] | Activity (Oryza sativa [11]) [%] | Activity [12] [%] | Activity (Oryza sativa [13]) [%] | Activity (Echinochloa oryzicola [14]) [%] | Activity [15] [%] | Activity (Echinochloa oryzicola [16]) [%] | Activity (Echinochloa oryzicola [17]) [%] | Activity (Echinochloa oryzicola [20]) [%] | also measured
COCC1=CN(C(C)(C)c2cc(Cl)cc(Cl)c2)C(=O)C1(C(=O)OC)c1ccccc1 (stereo unspecified) | 50.1 | 100 | 98 | 30 | 100 | 100 | 99 | 0 | 100 | 75.1 | 0 | 87.6 | 98 | 65 | 87.6 | 100 | – | – | –
COC(=O)C1(c2ccccc2)C(=O)N(C(C)(C)c2cc(Cl)cc(Cl)c2)C=C1COC(C)=O (stereo unspecified) | 0 | – | – | – | 100 | 100 | – | – | 100 | 0.1 | – | 0.1 | – | – | 87.6 | 75.1 | – | – | –
COC(=O)C1(c2ccccc2)C(=O)N(C(C)(C)c2cc(Cl)cc(Cl)c2)C=C1C(F)F (stereo unspecified) | 0 | – | – | – | 87.6 | 87.6 | – | – | 100 | 0 | – | 0 | – | – | 50.1 | 0 | – | – | –
COC(=O)C1(c2ccccc2)C(=O)N(C(C)(C)c2cc(Cl)cc(Cl)c2)C=C1/C=N/O (stereo unspecified) | 0 | – | – | – | 0.1 | 75.1 | – | – | 100 | 0 | – | 0 | – | – | 0.1 | 0 | – | – | –
COC(=O)C1(c2ccccc2)C(=O)N(C(C)(C)c2cc(Cl)cc(Cl)c2)C=C1C#N (stereo unspecified) | 0 | – | – | – | 0 | 87.6 | – | – | 100 | 0 | – | 0 | – | – | 0.1 | 0 | – | – | –
C=C1CN(C(C)(C)c2cc(Cl)cc(Cl)c2)C(=O)C1(C(=O)OC)c1ccccc1 (stereo unspecified) | – | 100 | 99 | 95 | – | – | 99 | 0 | – | – | 0 | – | 99 | 99 | – | – | 99 | 40 | Activity (Oryza sativa [18]): 70%; Activity (Oryza sativa [19]): 0%
C=C1CN(C(C)(C)c2cc(Cl)cc(Cl)c2)C(=O)C1(C(=O)OC)c1ccccc1F (stereo unspecified) | – | 99 | 95 | 80 | – | – | 99 | 0 | – | – | 0 | – | 98 | 95 | – | – | 99 | 65 | –
CC1=C(c2ccccc2)C(=O)N(C(C)(C)c2cc(Cl)cc(Cl)c2)C1 | 100 | 98 | 98 | 90 | 100 | 100 | 95 | 0 | 100 | 87.6 | 0 | 75.1 | 98 | 95 | 87.6 | 100 | 60 | 40 | –
CCOC(=O)C1(c2ccccc2)C(=O)N(C(C)(C)c2cc(Cl)cc(Cl)c2)C=C1C (stereo unspecified) | 75.1 | – | – | – | 100 | 100 | – | – | 100 | 87.6 | – | 0 | – | – | 75.1 | 100 | – | – | –
CC1=CN(C(C)(C)c2cc(Cl)cc(Cl)c2)C(=O)C1(C(=O)OCc1ccccc1)c1ccccc1 (stereo unspecified) | 0 | – | – | – | 100 | 0 | – | – | 100 | 50.1 | – | 0 | – | – | 0 | 0 | – | – | –
COC(=O)C1(c2ccccc2F)C(=O)N(C(C)(C)c2cc(Cl)cc(Cl)c2)C=C1C (stereo unspecified) | 0.1 | 100 | 100 | 5 | 100 | 100 | 99 | 0 | 100 | 100 | 0 | 0.1 | 30 | 90 | 87.6 | 100 | 99 | 80 | Activity (Oryza sativa [18]): 0%; Activity (Oryza sativa [21]): 20%; Activity (Oryza sativa [19]): 0%; Activity (Oryza sativa [22]): 0%
COC(=O)C1(c2ccccc2)C(=O)N(C(C)(C)c2cccc(Cl)c2)C=C1C (stereo unspecified) | 50.1 | 100 | 99 | 95 | 100 | 100 | 100 | 0 | 100 | 50.1 | 0 | 87.6 | 98 | 90 | 87.6 | 100 | 99 | 40 | Activity (Oryza sativa [18]): 80%; Activity (Oryza sativa [19]): 0%
COC(=O)C1(c2ccccc2)C(=O)N(C(C)(C)c2cc(F)cc(F)c2)C=C1C (stereo unspecified) | 100 | – | – | – | 100 | 100 | – | – | 100 | 50.1 | – | 87.6 | – | – | 87.6 | 75.1 | – | – | –
COC(=O)C1(c2ccccc2)C(=O)N(C(C)(C)c2cc(Cl)nc(Cl)c2)C=C1C (stereo unspecified) | 100 | 99 | 98 | 70 | 100 | 100 | 99 | 0 | 100 | 50.1 | 0 | 87.6 | 80 | 90 | 87.6 | 100 | 75 | 50 | Activity (Oryza sativa [18]): 30%; Activity (Oryza sativa [19]): 0%
COC(=O)C1(c2ccccc2)C(=O)N(C(C)(C)c2cccc(Cl)n2)C=C1C (stereo unspecified) | 100 | – | – | – | 87.6 | 100 | – | – | 100 | 0 | – | 87.6 | – | – | 87.6 | 100 | – | – | –
COC(=O)C1(c2ccccc2)C(=O)N(C(C)(C)c2ccc3ccccc3c2)C=C1C (stereo unspecified) | 0 | – | – | – | 100 | 87.6 | – | – | 100 | 0.1 | – | 0 | – | – | 87.6 | 87.6 | – | – | –
COC(=O)C1(c2ccccc2)C(=O)N(C(C)(C)c2cnc3ccccc3c2)C=C1C (stereo unspecified) | 50.1 | – | – | – | 100 | 100 | – | – | 100 | 0 | – | 0 | – | – | 87.6 | 100 | – | – | –
COC(=O)C1(c2ccccc2)C(=O)N(C(C)(C)c2cc(Cl)cc(Cl)c2)C=C1C=O (stereo unspecified) | 50.1 | – | – | – | 87.6 | 100 | – | – | 100 | 0 | – | 50.1 | – | – | 87.6 | 100 | – | – | –
COC(=O)C1(c2ccccc2)C(=O)N(C(C)(C)c2cc(Cl)cc(Cl)c2)C=C1CO (stereo unspecified) | 87.6 | 99 | 99 | 60 | 100 | 100 | 99 | 0 | 100 | 87.6 | 0 | 87.6 | 65 | 75 | 87.6 | 100 | 97 | 30 | Activity (Oryza sativa [18]): 0%; Activity (Oryza sativa [19]): 0%
